The target of one assay is T1, oxytocin receptors (OTR) (Homo sapiens, UniProt P30559).
T1 construct: endogenous in cells; host or cells: primary human term pregnant myometrial cells (from C-section tissue, collagenase dispersion)
T1 sequence (P30559 1-389): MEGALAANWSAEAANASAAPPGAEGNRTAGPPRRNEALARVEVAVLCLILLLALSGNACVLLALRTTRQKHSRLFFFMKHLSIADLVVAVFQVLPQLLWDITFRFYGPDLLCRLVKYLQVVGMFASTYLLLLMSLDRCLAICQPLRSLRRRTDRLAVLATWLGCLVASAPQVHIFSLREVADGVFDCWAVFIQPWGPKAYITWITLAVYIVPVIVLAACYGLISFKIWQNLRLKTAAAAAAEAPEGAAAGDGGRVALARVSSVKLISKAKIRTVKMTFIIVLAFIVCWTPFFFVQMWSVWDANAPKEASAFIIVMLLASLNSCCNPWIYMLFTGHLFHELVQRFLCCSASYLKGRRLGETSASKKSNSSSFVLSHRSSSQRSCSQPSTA
Briefly: Competition with 125I-OTA for OTR binding, whole-cell assay in human myometrial cells. To be noted: for affinity for OTR binding: FIG. 1. The procedure: FIG. 1. […] Percent inhibition of ^125I-OTA binding in human myometrial cells.
Determination of OTR ligand binding: OTA was monoiodinated as previously described (Hinko and Soloff, 1992). The specific activity of the iodinated peptide was 2000 Ci/mmol at the time of preparation. Whole cell assays for specific OTR binding activity were performed as described previously, using increasing concentrations of [^125I]OTA (Copland et al., 1999). The concentration of cellular DNA was determined in parallel, using the Hoechst dye H 33258 and a Hoefer DyNA Quant fluorometer according to the manufacturer's instructions.
The specific binding was determined by subtracting […]. Specific binding was expressed as a percent of total binding. All points were done in triplicate.

For assay [1], the system named is oxytocin receptor (OTR) in human term myometrial cells. Nature of the assay: Oxytocin-induced intracellular calcium transients in human term myometrial cells (Fura-2, single cells). The class given is cell-based. The conditions noted are these: 0.001 μg/ml (2.2 nM) troglitazone, 1 min before 10 nM oxytocin; FIG. 3B. The procedure: FIGS. 3A-H. Change in intracellular cytoplasmic calcium levels in human term myometrial cells in culture. Each line represents the change in calcium for a single cell. Cells were either pretreated with troglitazone for one minute and then treated with oxytocin, bombesin (BBS), or bradykinin. These three agents cause an increase in intracellular calcium and cause uterine contraction under the correct circumstance. Cells were grown in 10% FBS, DMEM, penicillin/streptomycin resulting in elevated OTR levels. Cells were then put into KRH buffer containing Fura-2. The cells take up Fura-2 allowing for detection in changes of cytoplasmic levels of calcium. Cells were then treated as described for each figure. […] There is no effect of troglitazone at this concentration upon oxytocin-stimulated calcium transients.
Cell Culture Conditions: The proper protocols were followed in obtaining human term myometrium tissue from mother's delivering via C-section. Human term pregnant myometrial cells were isolated by collagenase dispersion and were grown in media consisting of Delbecco's modified eagles media (DMEM) supplemented with 10% fetal bovine serum (FBS), and 2% penicillin/streptomycin in a humidified tissue culture incubator at 37° C. under an atmosphere of 5% CO2 and 95% air. […]
For orientation: Calcium assays in cells follow changes in intracellular calcium, usually with a dye or a luminescent sensor.

The test system of assay [2] is oxytocin induced uterine contractions. The conditions noted are these: Thornton et al. 1999; cited from earlier work.
The mark [3] stands for this setting: FIG. 1, read-out: IC50, 125I-OTA binding to OTR.

Where two headings read alike, the source gives them in different places.

As to `Cc1c(C)c2c(c(C)c1O)CCC(C)(COc1ccc(CC3SC(=O)NC3=O)cc1)O2` (racemic) [troglitazone, ±5-[[4-[(3,4-dihydro-6-hydroxy-2,5,7,8-tetramethyl-2H-1-benzopyran-2-yl)methoxy]phenyl]methyl]-2,4-thiazolidinedione], the IC50 on oxytocin receptors (OTR) (FIG. 1, read-out: 50% inhibitory concentration (IC50), 125I-OTA binding to OTR) came out at 0.0157 µM. The “effect on oxytocin-stimulated calcium transients” value in assay [1] is recorded as “no effect”. `CN(CCOc1ccc(CC2SC(=O)NC2=O)cc1)c1ccccn1` (centres unmarked) [BRL49653, rosiglitazone]: on oxytocin receptors (OTR) (setting [3]), the IC50 is around 10.6 µM.

As for `C[C@]12CC[C@@H]3c4ccc(O)cc4CC[C@H]3[C@@H]1CC[C@@H]2O` [17β-estradiol], the “affinity for OTR binding” value on oxytocin receptors (OTR) was “no affinity”. Turning to `Cc1c(C)c2c(c(C)c1OC(=O)CCC(=O)O)CC[C@@](C)(CCC[C@H](C)CCC[C@H](C)CCCC(C)C)O2` [Vitamin E succinate], the “affinity for OTR binding” value at oxytocin receptors (OTR) is listed as “no affinity”.

In the case of `CC(=O)[C@H]1CC[C@H]2[C@@H]3CC[C@H]4CC(=O)CC[C@]4(C)[C@H]3CC[C@]12C` [5β-dihydroprogesterone], the IC50 at oxytocin receptors (OTR) (setting [3]) was around 100 µM. The “concentration needed to inhibit oxytocin induced uterine contractions” value in assay [2] is 100 µM. For `CCc1ccc(CCOc2ccc(CC3SC(=O)NC3=O)cc2)nc1` (centres unmarked) [pioglitazone], the IC50 at oxytocin receptors (OTR) (setting [3]) is around 10.6 µM.

(Values after patent US7528133B1, “Use of thiazolidinediones derivatives for preventing uterine contractions in premature labour or lactation” (The Board of Regents of The University of Texas System, priority 1998, dated 2009).)
